The values below come from patent US8163740B2, “6-substituted benzoxazines” (Hoffmann-La Roche Inc., priority 2008, dated 2012).

The target in this experiment is recombinant human 5-HT5A receptor (Homo sapiens, UniProt P47898). The experiment is described as follows: [3H]LSD radioligand binding assay. The note with it: [3H]LSD (approximately 1 nM); membranes from HEK-EBNA cells transiently expressing 5-HT5A; Ki by Cheng-Prussoff equation; read-out: Ki. The procedure: A [^3H]LSD radioligand binding assay was used to determine the affinity of the compounds for the recombinant human 5-HT5A receptor, in membranes from transiently (cDNA) expressed 5-HT5A receptors in Human Embryonic Kidney-EBNA (HEK-EBNA) cells. Assay buffer consisted of Tris (50 mM) buffer containing 1 mM EGTA, 10 mM MgCl2 (pH 7.4) and 10 μM pargyline. The binding assay was carried out in 96-well-plates in the presence of [^3H]LSD (approximately 1 nM), approximately 2 μg/well of membrane protein, and 0.5 mg of Ysi-poly-1-lysine SPA beads in a final volume of 200 μl of buffer. Non-specific binding was defined using methiothepin 2 μM. Compounds were tested at 10 concentrations. All assays were conducted in duplicate and repeated at least two times. Assay plates were incubated for 120 min at room temperature before centrifugation. Bound ligand was determined using a Packard Topcount scintillation counter. IC50 values were calculated using a non-linear curve fitting program and Ki values calculated using the Cheng-Prussoff equation.
recombinant human 5-HT5A receptor, sequence (P47898 whole entry): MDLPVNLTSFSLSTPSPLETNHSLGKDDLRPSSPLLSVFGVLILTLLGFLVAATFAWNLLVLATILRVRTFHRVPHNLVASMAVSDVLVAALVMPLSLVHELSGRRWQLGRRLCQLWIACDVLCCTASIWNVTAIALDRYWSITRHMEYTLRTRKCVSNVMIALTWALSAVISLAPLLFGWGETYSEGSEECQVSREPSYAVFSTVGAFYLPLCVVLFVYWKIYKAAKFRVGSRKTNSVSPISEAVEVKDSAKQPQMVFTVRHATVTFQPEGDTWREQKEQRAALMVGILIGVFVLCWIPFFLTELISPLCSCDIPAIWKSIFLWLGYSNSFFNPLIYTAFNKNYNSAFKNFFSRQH
Turning to `Fc1ccc2c(c1)CCC2NC1=Nc2ccc(Nc3nccc(C(F)(F)F)n3)cc2CO1` (racemic) [Example 58, rac-N^2-(5-Fluoro-indan-1-yl)-N^6-(4-trifluoromethyl-pyrimidin-2-yl)-4H-benzo[d][1,3]oxazine-2,6-diamine], the Ki is 6.8 nM.

Take `COc1cccc2c1C(NC1=Nc3ccc(Nc4cccc(C(F)(F)F)n4)cc3CO1)CO2` (racemic) [Example 59, rac-N^2-(4-Methoxy-2,3-dihydro-benzofuran-3-yl)-N^6-(6-trifluoromethyl-pyridin-2-yl)-4H-benzo[d][1,3]oxazine-2,6-diamine]: the inhibitory constant (Ki) came out at 7.82 nM.

Take `COc1cccc2c1C(NC1=Nc3ccc(Nc4nccc(C(F)(F)F)n4)cc3CO1)CO2` (racemic) [Example 60, rac-N^2-(4-Methoxy-2,3-dihydro-benzofuran-3-yl)-N^6-(4-trifluoromethyl-pyrimidin-2-yl)-4H-benzo[d][1,3]oxazine-2,6-diamine]: the Ki came out at 12.5 nM.

For `COc1cccc2c1C(NC1=Nc3ccc(NS(=O)(=O)N(C)C)cc3CO1)CC2` (racemic) [Example 61, rac-N,N-(Dimethyl)-N′-{2-(7-Methoxy-indan-1-ylamino)-4H-benzo[d][1,3]oxazin-6-yl}-sulfamide], the Ki came out at 2.6 nM.

As for `COc1cccc2c1C(NC1=Nc3ccc(NS(=O)(=O)N4CCCCC4)cc3CO1)CC2` (racemic) [Example 62, rac-Piperidine-1-sulfonic acid [2-(7-methoxy-indan-1-ylamino)-4H-benzo[d][1,3]oxazin-6-yl]-amide], the inhibition constant Ki worked out at 3.26 nM.

Regarding `COc1cccc2c1C(NC1=Nc3ccc(NS(=O)(=O)N4CCOCC4)cc3CO1)CC2` (racemic) [Example 63, rac-Morpholine-4-sulfonic acid [2-(7-methoxy-indan-1-ylamino)-4H-benzo[d][1,3]oxazin-6-yl]-amide], the inhibition constant (Ki) came out at 3.32 nM.

Regarding `CN(C)S(=O)(=O)Nc1ccc2c(c1)COC(NC1CCc3cc(F)ccc31)=N2` (racemic) [Example 64, rac-N,N-(Dimethyl)-N′-{2-(5-Fluoro-indan-1-ylamino)-4H-benzo[d][1,3]oxazin-6-yl}-sulfamide], the Ki was found to be 4.08 nM.

In the case of `Nc1ccc2c(c1)COC(NC1CCOc3ccccc31)=N2` (racemic) [Example 75, rac-N^2-Chroman-4-yl-4H-benzo[d][1,3]oxazine-2,6-diamine], the Ki is 16.3 nM.

For the compound `COc1cccc2c1C(NC1=Nc3ccc(Nc4cccc(C(F)(F)F)n4)cc3CO1)CC2` (racemic) [Example 80, rac-N^2-(7-Methoxy-indan-1-yl)-N^6-(6-trifluoromethyl-pyridin-2-yl)-4H-benzo[d][1,3]oxazine-2,6-diamine], the Ki came out at 4.26 nM.

Take `COc1cccc2c1C(NC1=Nc3ccc(Nc4nccc(C(F)(F)F)n4)cc3CO1)CC2` (racemic) [Example 81, rac-N^2-(7-Methoxy-indan-1-yl)-N^6-(4-trifluoromethyl-pyrimidin-2-yl)-4H-benzo[d][1,3]oxazine-2,6-diamine]: the Ki was 7.16 nM.

For `COc1cccc2c1C(NC1=Nc3ccc(NC(=O)CN4CCN(C)CC4)cc3CO1)CC2` (racemic) [Example 86, rac-N-[2-(7-Methoxy-indan-1-ylamino)-4H-benzo[d][1,3]oxazin-6-yl]-2-(4-methyl-piperazin-1-yl)-acetamide], the Ki stood at 1.43 nM.

As for `O=C(Nc1ccc2c(c1)COC(NC1CCOc3ccccc31)=N2)C1CC1` (racemic) [Example 90, rac-Cyclopropanecarboxylic acid [2-(chroman-4-ylamino)-4H-benzo[d][1,3]oxazin-6-yl]-amide], the Ki was found to be 8.28 nM.

For the compound `CN(C)S(=O)(=O)Nc1ccc2c(c1)COC(NC1CCOc3ccccc31)=N2` (racemic) [Example 91, rac-N,N-(Dimethyl)-N′-{2-(chroman-4-ylamino)-4H-benzo[d][1,3]oxazin-6-yl}-sulfamide], the inhibition constant Ki amounted to 52.5 nM.

On to `COc1cccc2c1C(NC1=Nc3ccc(NS(C)(=O)=O)cc3CO1)CC2` (racemic) [Example 102, rac-N-[2-(7-Methoxy-indan-1-ylamino)-4H-benzo[d][1,3]oxazin-6-yl]-methanesulfonamide], for which the inhibition constant Ki turned out to be 8.36 nM.

With `COc1cccc2c1C(NC1=Nc3ccc(NS(=O)(=O)C4CC4)cc3CO1)CC2` (racemic) [Example 103, rac-Cyclopropanesulfonic acid [2-(7-methoxy-indan-1-ylamino)-4H-benzo[d][1,3]oxazin-6-yl]-amide], the Ki amounted to 2.82 nM.

On to `COc1cccc2c1C(NC1=Nc3ccc(NS(=O)(=O)c4ccccc4)cc3CO1)CC2` (racemic) [Example 104, rac-N-[2-(7-Methoxy-indan-1-ylamino)-4H-benzo[d][1,3]oxazin-6-yl]-benzenesulfonamide], for which the Ki stood at 8.68 nM.

On to `COc1cccc2c1C(NC1=Nc3ccc(Nc4nnn(C(C)(C)C)n4)cc3CO1)CC2` (racemic) [Example 112, rac-N^6-(2-tert-Butyl-2H-tetrazol-5-yl)-N^2-(7-methoxy-indan-1-yl)-4H-benzo[d][1,3]oxazine-2,6-diamine], for which the Ki turned out to be 4.56 nM.

Regarding `COc1cccc2c1C(NC1=Nc3ccc(NS(=O)(=O)C4CC4)cc3CO1)CO2` (racemic) [Example 113, rac-Cyclopropanesulfonic acid [2-(4-methoxy-2,3-dihydro-benzofuran-3-ylamino)-4H-benzo[d][1,3]oxazin-6-yl]-amide], the inhibition constant Ki was 12.6 nM.

Take `COc1cccc2c1C(NC1=Nc3ccc(NS(C)(=O)=O)cc3CO1)CO2` (racemic) [Example 114, rac-N-[2-(4-Methoxy-2,3-dihydro-benzofuran-3-ylamino)-4H-benzo[d][1,3]oxazin-6-yl]-methanesulfonamide]: the Ki came to 30.4 nM.

For `COc1cccc2c1C(NC1=Nc3ccc(NS(=O)(=O)c4ccccc4)cc3CO1)CO2` (racemic) [Example 115, rac-N-[2-(4-Methoxy-2,3-dihydro-benzofuran-3-ylamino)-4H-benzo[d][1,3]oxazin-6-yl]-benzenesulfonamide], the inhibitory constant (Ki) came out at 20.9 nM.

For `CN1CCN(CC(=O)Nc2ccc3c(c2)COC(NC2CCOc4ccccc42)=N3)CC1` (racemic) [Example 120, rac-N-[2-(Chroman-4-ylamino)-4H-benzo[d][1,3]oxazin-6-yl]-2-(4-methyl-piperazin-1-yl)-acetamide], the inhibition constant (Ki) is 14.3 nM.

Turning to `O=C(CN1CCOCC1)Nc1ccc2c(c1)COC(NC1CCOc3ccccc31)=N2` (racemic) [Example 121, N-[2-(Chroman-4-ylamino)-4H-benzo[d][1,3]oxazin-6-yl]-2-morpholin-4-yl-acetamide], the Ki came to 135 nM.

For `COc1cccc2c1C(NC1=Nc3ccc(C#N)cc3CO1)CO2` (racemic) [Example 141, rac-2-(4-Methoxy-2,3-dihydro-benzofuran-3-ylamino)-4H-benzo[d][1,3]oxazine-6-carbonitrile], the Ki was 160 nM.

For `COc1cccc2c1C(NC1=Nc3ccc(C#N)cc3CO1)CC2` (racemic) [Example 142, rac-2-(7-Methoxy-indan-1-ylamino)-4H-benzo[d][1,3]oxazine-6-carbonitrile], the Ki is 27 nM.

For the compound `COc1ccccc1CNC1=Nc2ccc([N+](=O)[O-])cc2CO1` [Example 1, (2-Methoxy-benzyl)-(6-nitro-4H-benzo[d][1,3]oxazin-2-yl)-amine], the Ki stood at 390 nM.

As for `Nc1ccc2c(c1)COC(N[C@@H]1CCc3ccccc31)=N2` [Example 2, (R)-N^2-Indan-1-yl-4H-benzo[d][1,3]oxazine-2,6-diamine], the inhibition constant Ki is 1.04 nM.

On to `CN1CCN(CC(=O)Nc2ccc3c(c2)COC(N[C@@H]2CCc4ccccc42)=N3)CC1` [Example 3, N-[2-((R)-Indan-1-ylamino)-4H-benzo[d][1,3]oxazin-6-yl]-2-(4-methyl-piperazin-1-yl)-acetamide], for which the Ki was 1.84 nM.

For `COc1ccccc1CNC1=Nc2ccc(N)cc2CO1` [Example 4, N^2-(2-Methoxy-benzyl)-4H-benzo[d][1,3]oxazine-2,6-diamine], the inhibitory constant (Ki) was found to be 6.05 nM.

Consider `COc1ccccc1CNC1=Nc2ccc(NC(=O)C3CC3)cc2CO1` [Example 7, Cyclopropanecarboxylic acid [2-(2-methoxy-benzylamino)-4H-benzo[d][1,3]oxazin-6-yl]-amide], for which the Ki amounted to 2.98 nM.

Take `O=C(Nc1ccc2c(c1)COC(N[C@@H]1CCc3ccccc31)=N2)C1CC1` [Example 18, Cyclopropanecarboxylic acid [2-((R)-indan-1-ylamino)-4H-benzo[d][1,3]oxazin-6-yl]-amide]: the inhibition constant Ki is 0.83 nM.

Consider `COCC(=O)Nc1ccc2c(c1)COC(N[C@@H]1CCc3ccccc31)=N2` [Example 19, N-[2-((R)-Indan-1-ylamino)-4H-benzo[d][1,3]oxazin-6-yl]-2-methoxy-acetamide], for which the Ki came to 4.1 nM.

For the compound `COc1ccccc1CNC1=Nc2ccc(NC(=O)CN3CCN(C)CC3)cc2CO1` [Example 26, N-[2-(2-Methoxy-benzylamino)-4H-benzo[d][1,3]oxazin-6-yl]-2-(4-methyl-piperazin-1-yl)-acetamide], the Ki came to 6.12 nM.

As for `CN(C)S(=O)(=O)Nc1ccc2c(c1)COC(N[C@@H]1CCc3ccccc31)=N2` [Example 27, N,N-(Dimethyl)-N′-{2-((R)-indan-1-ylamino)-4H-benzo[d][1,3]oxazin-6-yl}-sulfamide], the Ki came out at 2.36 nM.

Regarding `COc1ccccc1CNC1=Nc2ccc(NC(=O)CN3CCN(CCO)CC3)cc2CO1` [Example 28, 2-[4-(2-Hydroxy-ethyl)-piperazin-1-yl]-N-[2-(2-methoxy-benzylamino)-4H-benzo[d][1,3]oxazin-6-yl]-acetamide], the Ki amounted to 10.2 nM.

By Ki is commonly meant the dissociation constant of the complex between target and ligand, obtained from inhibition or displacement.
